Legend:
E3 (CUL1) = E3 (CUL1) (Homo sapiens (Human), UniProt Q13616); experiment: E3 (CUL1) inhibition (Table 1); assay type: biochemical
Description: The reaction mixture (15 μl) was assembled onto a 384-well microtiter plate. […] ATP (0.66 mM) was then added to the mix followed by a brief centrifugation to settle down the mixture. The resulting plate was incubated at 30° C. in the Synergy-H1 reader and the fluorescence signal was monitored. Ubiquitination was quantified based on the ratio of acceptor:donor fluorescence (excitation 515 nm; donor emission 570 nm, acceptor emission 670 nm).

E3 (CUL4) = E3 (CUL4) (Homo sapiens (Human), UniProt Q13619); experiment: E3 (CUL4) inhibition (Table 1); assay type: biochemical
Description: The reaction was incubated for 5 min at 37° C. […] The reaction was incubated for 5 min at room temperature. In the second step (chase), the completed Cdc34b-Ub thiol ester reaction mixture was combined with one third of the completed mono-ubiquitination mixture. The final volume was adjusted to 10 μl with a mix that contained 50 mM Tris-HCl (pH 7.4), 0.5 mM DTT, 0.1 mg/ml of BSA, 5 mM MgCl2, and 2 mM ATP. Compounds were added where indicated. The chase reaction was incubated for 10 min at 37° C. The reaction products were separated by 4-20% SDS-polyacrylamide gel electrophoresis. The reaction scheme was identical to the one described above for FIGS. 12A-B. […] The reaction products, separated by SDS-PAGE, were visualized and analyzed by phospho-imaging using Typhoon 9500 scanner.

cancer cells = experiment: Apoptosis, Annexin V flow cytometry; assay type: cell-based; details: Table 1
Description: Cells (5×10^4) were seeded 24 hours before compound treatment. Compound was added to the culture media and cells were cultured with the compound for 48 hours. The treated cells were then transferred into 5 ml flow cytometry tubes and the well was washed once with PBS to collect any remaining cells. The cells were then pelleted at 500×g for 5 min with a Beckman CS-6KR centrifuge at 4° C. After removal of supernatant, the cells pellet was washed with Annexin V binding buffer (10 mM Hepes-NaOH, pH 7.4, 150 mM NaCl, 5 mM KCl, 1 mM MgCl2, and 1.8 mM CaCl2). Cells were pelleted once again and incubated in the dark with Annexin V-FITC (2 μg/ml) in binding buffer for 5 min then analyzed using LSRFortessa flow cytometer (BD).

Chain of E3 (CUL4) (Q13619 whole entry): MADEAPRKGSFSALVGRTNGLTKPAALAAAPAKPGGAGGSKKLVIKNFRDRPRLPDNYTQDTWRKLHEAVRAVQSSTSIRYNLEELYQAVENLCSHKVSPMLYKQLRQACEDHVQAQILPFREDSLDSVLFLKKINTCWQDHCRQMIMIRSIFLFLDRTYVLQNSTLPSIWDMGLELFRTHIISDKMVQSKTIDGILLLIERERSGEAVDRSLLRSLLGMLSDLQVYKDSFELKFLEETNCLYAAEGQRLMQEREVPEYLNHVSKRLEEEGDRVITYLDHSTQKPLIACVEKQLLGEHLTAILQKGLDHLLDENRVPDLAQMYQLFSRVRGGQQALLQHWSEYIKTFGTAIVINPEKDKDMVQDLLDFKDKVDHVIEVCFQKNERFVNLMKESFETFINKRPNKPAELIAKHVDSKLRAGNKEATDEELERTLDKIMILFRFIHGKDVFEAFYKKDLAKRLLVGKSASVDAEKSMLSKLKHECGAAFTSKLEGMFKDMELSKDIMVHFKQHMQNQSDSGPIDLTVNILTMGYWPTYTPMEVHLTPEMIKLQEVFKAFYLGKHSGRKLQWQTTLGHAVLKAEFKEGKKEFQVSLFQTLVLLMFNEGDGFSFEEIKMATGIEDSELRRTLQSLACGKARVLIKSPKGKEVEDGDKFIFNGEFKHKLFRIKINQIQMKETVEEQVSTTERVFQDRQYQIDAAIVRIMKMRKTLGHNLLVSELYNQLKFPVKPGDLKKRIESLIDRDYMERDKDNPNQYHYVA
Chain of E3 (CUL4) (P62877 whole entry partner): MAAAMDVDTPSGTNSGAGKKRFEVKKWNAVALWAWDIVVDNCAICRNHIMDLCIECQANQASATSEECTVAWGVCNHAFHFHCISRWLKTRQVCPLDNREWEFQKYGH
Chain of E3 (CUL1) (Q13616 whole entry): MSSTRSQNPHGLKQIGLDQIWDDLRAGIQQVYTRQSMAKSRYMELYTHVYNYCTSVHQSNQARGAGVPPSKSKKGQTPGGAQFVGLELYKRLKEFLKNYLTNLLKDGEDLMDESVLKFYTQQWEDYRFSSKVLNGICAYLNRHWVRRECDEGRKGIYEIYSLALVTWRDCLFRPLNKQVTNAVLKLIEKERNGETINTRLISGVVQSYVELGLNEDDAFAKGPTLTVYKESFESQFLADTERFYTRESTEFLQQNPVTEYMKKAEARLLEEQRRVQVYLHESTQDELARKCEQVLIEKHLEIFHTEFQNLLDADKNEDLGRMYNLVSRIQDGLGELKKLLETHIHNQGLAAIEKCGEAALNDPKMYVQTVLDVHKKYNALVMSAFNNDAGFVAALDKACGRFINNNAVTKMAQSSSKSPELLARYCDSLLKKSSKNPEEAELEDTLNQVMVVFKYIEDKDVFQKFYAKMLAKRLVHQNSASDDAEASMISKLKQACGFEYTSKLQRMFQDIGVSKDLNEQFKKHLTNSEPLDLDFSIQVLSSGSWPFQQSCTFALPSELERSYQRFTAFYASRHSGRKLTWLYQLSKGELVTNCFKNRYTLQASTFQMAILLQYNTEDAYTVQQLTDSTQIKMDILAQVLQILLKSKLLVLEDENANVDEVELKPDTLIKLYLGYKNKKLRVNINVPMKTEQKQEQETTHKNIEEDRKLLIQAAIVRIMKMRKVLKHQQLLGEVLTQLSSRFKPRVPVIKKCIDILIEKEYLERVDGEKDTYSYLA
Chain of E3 (CUL1) (P62877 whole entry partner): as the sequence (P62877 whole entry partner) above

Row | SMILES | EC50 (E3 (CUL1)) [µM] | EC50 (E3 (CUL4)) [µM] | E3 (CUL4) Inhibition EC50 (E3 (CUL4)) | EC50 (cancer cells) [µM] | E3 (CUL1) Inhibition EC50 (E3 (CUL1)) | Apoptosis EC50 (cancer cells)
1 | CC(=O)Oc1ccc2c(=O)cc(C(F)(F)F)oc2c1OC(C)=O [KH-3-12] | 32 | > 75 |  |  |  | 
2 | O=c1ccoc2c(O)c(O)ccc12 [KH-3-49] | 11 | > 75 |  |  |  | 
3 | O=c1cc(C(F)(F)F)oc2c(O)c(O)ccc12 [KH-3-50] | 4.9 |  | Inactive |  |  | 
4 | O=c1c(-c2cnn(-c3ccc(C(F)(F)F)cc3)c2)c(C(F)(F)F)oc2c(O)c(O)ccc12 [KH-3-150] | 9.3 | > 14 |  | 6 |  | 
5 | O=c1c(-c2cnn(-c3cccc(Cl)c3)c2)c(C(F)(F)F)oc2c(O)c(O)ccc12 [KH-3-151] | 13 | ~14 |  | 5 |  | 
6 | N#Cc1ccc(-n2cc(-c3c(C(F)(F)F)oc4c(O)c(O)ccc4c3=O)cn2)cc1 [KH-3-152] | 9 | > 14 |  | 30 |  | 
7 | O=c1c(-c2ccnn2Cc2ccccc2)c(C(F)(F)F)oc2c(O)c(O)ccc12 [KH-3-160A] | 3.4 | ~20 |  | 21 |  | 
8 | O=c1c(-c2cnn(-c3ccc(F)cc3)c2)c(C(F)(F)F)oc2c(O)c(O)ccc12 [KH-3-174] | 8 | > 14 |  |  |  | 
9 | O=c1c(-c2cnn(-c3cccc(F)c3)c2)c(C(F)(F)F)oc2c(O)c(O)ccc12 [KH-4-41] | 5 | ~14 |  | 9 |  | 
10 | NC(=O)c1ccccc1-n1cc(-c2c(C(F)(F)F)oc3c(O)c(O)ccc3c2=O)cn1 [KH-4-44] | 10 |  | Inactive |  |  | 
11 | O=c1c(-c2cnn(-c3cccc(C(F)(F)F)c3)c2)c(C(F)(F)F)oc2c(O)c(O)ccc12 [KH-4-65] | 8 | > 14 |  |  |  | 
12 | N#Cc1cccc(-n2cc(-c3c(C(F)(F)F)oc4c(O)c(O)ccc4c3=O)cn2)c1 [KH-4-66] | 9 | > 14 |  |  |  | 
13 | O=c1c(-c2cnn(-c3cccnc3)c2)c(C(F)(F)F)oc2c(O)c(O)ccc12 [KH-4-67] |  |  | Inactive |  | Inactive | 
14 | Nc1cccc(-n2cc(-c3c(C(F)(F)F)oc4c(O)c(O)ccc4c3=O)cn2)c1 [KH-4-78] |  | > 14 |  |  |  | Inactive
15 | Cc1cccc(-n2cc(-c3c(C(F)(F)F)oc4c(O)c(O)ccc4c3=O)cn2)c1 [KH-4-79] |  | ~14 |  | 19 |  | 
16 | O=c1c(-c2cnn(-c3ccccc3Cl)c2)c(C(F)(F)F)oc2c(O)c(O)ccc12 [KH-4-88] |  | > 14 |  | 26 |  | 
17 | O=c1c(-c2cnn(-c3ccc(Cl)cc3Cl)c2)c(C(F)(F)F)oc2c(O)c(O)ccc12 [KH-4-98] |  | ~10 |  | 9 |  | 
18 | O=c1c(-c2cnn(-c3ccc(Cl)c(Cl)c3)c2)c(C(F)(F)F)oc2c(O)c(O)ccc12 [KH-4-99] |  | ~10 |  | 9 |  | 
19 | O=c1c(-c2cnn(-c3cc(Cl)cc(Cl)c3)c2)c(C(F)(F)F)oc2c(O)c(O)ccc12 [KH-4-116] |  | ~10 |  | 6 |  | 
20 | O=c1c(-c2cnn(-c3ccccc3)c2)c(C(F)(F)F)oc2c(OS(=O)(=O)C(F)(F)F)c(O)ccc12 [KH-4-136] |  |  | Inactive |  |  | Inactive

Row | SMILES | EC50 (E3 (CUL1)) [µM] | EC50 (E3 (CUL4)) [µM] | E3 (CUL4) Inhibition EC50 (E3 (CUL4)) | EC50 (cancer cells) [µM] | E3 (CUL1) Inhibition EC50 (E3 (CUL1)) | Apoptosis EC50 (cancer cells)
21 | O=c1c(-c2cnn(-c3ccccc3)n2)c(C(F)(F)F)oc2c(O)c(O)ccc12 [KH-5-09] |  | > 14 |  |  |  | 
22 | COc1ccc2c(=O)c(-c3cnn(Cc4ccc(Cl)cc4)c3)c(C(F)(F)F)oc2c1OC [MSSM-RJD-MM-001, 3-(1-(4-chlorobenzyl)-1H-pyrazol-4-yl)-7,8-dimethoxy-2-(trifluoromethyl)-4H-chromen-4-one] | > 100 | > 10 |  | > 20 |  | 
23 | CCCCn1cc(-c2c(C(F)(F)F)oc3c(OC)c(OC)ccc3c2=O)cn1 [MSSM-RJD-MM-002, 3-(1-butyl-1H-pyrazol-4-yl)-7,8-dimethoxy-2-(trifluoromethyl)-4H-chromen-4-one] | 96 | > 10 |  | > 20 |  | 
24 | COc1ccc2c(=O)c(-c3cnn(C(C)C)c3)c(C(F)(F)F)oc2c1OC [MSSM-RJD-MM-003, 3-(1-isopropyl-1H-pyrazol-4-yl)-7,8-dimethoxy-2-(trifluoromethyl)-4H-chromen-4-one] | > 100 | > 10 |  | > 20 |  | 
25 | CCCn1cc(-c2c(C(F)(F)F)oc3c(OC)c(OC)ccc3c2=O)cn1 [MSSM-RJD-MM-004] | > 100 | > 10 |  | > 20 |  | 
26 | CCn1cc(-c2c(C(F)(F)F)oc3c(OC)c(OC)ccc3c2=O)cn1 [MSSM-RJD-MM-005] | > 100 | > 10 |  | > 20 |  | 
27 | O=c1c(-c2cnn(Cc3ccc(Cl)cc3)c2)c(C(F)(F)F)oc2c(O)c(O)ccc12 [MSSM-RJD-MM-006, 3-(1-(4-chlorobenzyl)-1H-pyrazol-4-yl)-7,8-dihydroxy-2-(trifluoromethyl)-4H-chromen-4-one] | 7.6 | > 10 |  | > 20 |  | 
28 | CCCCn1cc(-c2c(C(F)(F)F)oc3c(O)c(O)ccc3c2=O)cn1 [MSSM-RJD-MM-007, 3-(1-butyl-1H-pyrazol-4-yl)-7,8-dihydroxy-2-(trifluoromethyl)-4H-chromen-4-one] | 3.8 | > 10 |  | > 20 |  | 
29 | CCCn1cc(-c2c(C(F)(F)F)oc3c(O)c(O)ccc3c2=O)cn1 [MSSM-RJD-MM-008, 7,8-dihydroxy-3-(1-propyl-1H-pyrazol-4-yl)-2-(trifluoromethyl)-4H-chromen-4-one] | 4 | > 10 |  | > 20 |  | 
30 | CCn1cc(-c2c(C(F)(F)F)oc3c(O)c(O)ccc3c2=O)cn1 [MSSM-RJD-MM-009, 3-(1-ethyl-1H-pyrazol-4-yl)-7,8-dihydroxy-2-(trifluoromethyl)-4H-chromen-4-one] | 6 | > 10 |  | > 20 |  | 
31 | COc1ccc2c(=O)c(-c3cnn(Cc4ccc(F)cc4)c3)c(C(F)(F)F)oc2c1OC [MSSM-RJD-MM-010, 3-(1-(4-fluorobenzyl)-1H-pyrazol-4-yl)-7,8-dimethoxy-2-(trifluoromethyl)-4H-chromen-4-one] | > 100 | > 10 |  | > 20 |  | 
32 | COc1ccc2c(=O)c(-c3cnn(Cc4ccc(C(F)(F)F)cc4)c3)c(C(F)(F)F)oc2c1OC [MSSM-RJD-MM-011, 7,8-dimethoxy-2-(trifluoromethyl)-3-(1-(4-(trifluoromethyl)benzyl)-1H-pyrazol-4-yl)-4H-chromen-4-one] | > 100 | > 10 |  | > 20 |  | 
33 | COc1ccc2c(=O)c(-c3cnn(Cc4ccccc4Cl)c3)c(C(F)(F)F)oc2c1OC [MSSM-RJD-MM-012, 3-(1-(2-chlorobenzyl)-1H-pyrazol-4-yl)-7,8-dimethoxy-2-(trifluoromethyl)-4H-chromen-4-one] | > 100 | > 10 |  | > 20 |  | 
34 | O=c1c(-c2cnn(Cc3ccc(F)cc3)c2)c(C(F)(F)F)oc2c(O)c(O)ccc12 [MSSM-RJD-MM-013, 3-(1-(4-fluorobenzyl)-1H-pyrazol-4-yl)-7,8-dihydroxy-2-(trifluoromethyl)-4H-chromen-4-one] | 7.2 | > 30 |  | > 20 |  | 
35 | O=c1c(-c2cnn(Cc3ccc(C(F)(F)F)cc3)c2)c(C(F)(F)F)oc2c(O)c(O)ccc12 [MSSM-RJD-MM-014, 7,8-dihydroxy-2-(trifluoromethyl)-3-(1-(4-(trifluoromethyl)benzyl)-1H-pyrazol-4-yl)-4H-chromen-4-one] | 5.4 | ~10 |  | ~8 |  | 
36 | O=c1c(-c2cnn(Cc3ccccc3Cl)c2)c(C(F)(F)F)oc2c(O)c(O)ccc12 [MSSM-RJD-MM-015, 3-(1-(2-chlorobenzyl)-1H-pyrazol-4-yl)-7,8-dihydroxy-2-(trifluoromethyl)-4H-chromen-4-one] | 8.2 | > 10 |  | > 20 |  | 
37 | COc1ccc2c(=O)c(-c3cnn(Cc4ccccc4F)c3)c(C(F)(F)F)oc2c1OC [MSSM-RJD-MM-016, 3-(1-(2-fluorobenzyl)-1H-pyrazol-4-yl)-7,8-dimethoxy-2-(trifluoromethyl)-4H-chromen-4-one] | > 100 | > 10 |  | > 20 |  | 
38 | COc1ccc2c(=O)c(-c3cnn(Cc4cccc(Cl)c4)c3)c(C(F)(F)F)oc2c1OC [MSSM-RJD-MM-017, 3-(1-(3-chlorobenzyl)-1H-pyrazol-4-yl)-7,8-dimethoxy-2-(trifluoromethyl)-4H-chromen-4-one] | 82 | > 10 |  |  |  | 
39 | COc1cccc(Cn2cc(-c3c(C(F)(F)F)oc4c(OC)c(OC)ccc4c3=O)cn2)c1 [MSSM-RJD-MM-018, 7,8-dimethoxy-3-(1-(3-methoxybenzyl)-1H-pyrazol-4-yl)-2-(trifluoromethyl)-4H-chromen-4-one] | > 100 | > 10 |  |  |  | 
40 | COc1ccc2c(=O)c(-c3cnn(Cc4cccc(C)c4)c3)c(C(F)(F)F)oc2c1OC [MSSM-RJD-MM-019] | 92 | > 10 |  |  |  | 

From US20240174649A1, “CULLIN-RING E3 UBIQUITIN LIGASE 4 INHIBITOR COMPOUNDS AND METHODS OF THEIR USE” (ICAHN SCHOOL OF MEDICINE AT MOUNT SINAI, priority 2021, published 2024)
